{"source": "patent US20220281848A1", "about": "“PYRAZOLE-SUBSTITUTED PYRROLIDINONES AS HERBICIDES” (FMC Corporation, priority 2019, published 2022)", "test_system": "plants", "test": "Test D pre-emergence, other plants of Tables D1 and D3", "format": "in vivo", "settings": "preemergent, 20 DAA", "outline": "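Seeds treated with herbicide safener; sown in soil; glasshouse, 16 h light, 65% humidity. Sprayed day 1 (pre) or ~day 12 (post). Spray in 0.2% v/v adjuvant. Scored 0–100 damage: 20 DAA pre, 15 d post.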", "data": [{"compound": "CCn1nc([C@@H]2CN(C)C(=O)[C@H]2C(=O)Nc2cccc(F)c2F)c2cccc(F)c21", "note": "[Compound 14]", "values": [{"measurement": "damage to plant (100=total damage to plant; 0=no damage to plant), ABUTH", "setting": "rate 15", "value": 0}, {"measurement": "damage to plant (100=total damage to plant; 0=no damage to plant), ABUTH", "setting": "rate 30", "value": 0}, {"measurement": "damage to plant (100=total damage to plant; 0=no damage to plant), ABUTH", "setting": "rate 60", "value": 0}, {"measurement": "damage to plant (100=total damage to plant; 0=no damage to plant), ABUTH", "setting": "rate 130", "value": 0}, {"measurement": "damage to plant (100=total damage to plant; 0=no damage to plant), ABUTH", "setting": "rate 250", "value": 10}, {"measurement": "damage to plant (100=total damage to plant; 0=no damage to plant), ABUTH", "setting": "rate 500", "value": 20}, {"measurement": "damage to plant (100=total damage to plant; 0=no damage to plant), AMARE", "setting": "rate 15", "value": 0}, {"measurement": "damage to plant (100=total damage to plant; 0=no damage to plant), AMARE", "setting": "rate 30", "value": 0}, {"measurement": "damage to plant (100=total damage to plant; 0=no damage to plant), AMARE", "setting": "rate 60", "value": 0}, {"measurement": "damage to plant (100=total damage to plant; 0=no damage to plant), AMARE", "setting": "rate 130", "value": 0}, {"measurement": "damage to plant (100=total damage to plant; 0=no damage to plant), AMARE", "setting": "rate 250", "value": 0}, {"measurement": "damage to plant (100=total damage to plant; 0=no damage to plant), AMARE", "setting": "rate 500", "value": 0}, {"measurement": "damage to plant (100=total damage to plant; 0=no damage to plant), BIDPI", "setting": "rate 15", "value": 0}, {"measurement": "damage to plant (100=total damage to plant; 0=no damage to plant), BIDPI", "setting": "rate 30", "value": 0}, {"measurement": "damage to plant (100=total damage to plant; 0=no damage to plant), BIDPI", "setting": "rate 60", "value": 0}, {"measurement": "damage to plant (100=total damage to plant; 0=no damage to plant), BIDPI", "setting": "rate 130", "value": 0}, {"measurement": "damage to plant (100=total damage to plant; 0=no damage to plant), BIDPI", "setting": "rate 250", "value": 0}, {"measurement": "damage to plant (100=total damage to plant; 0=no damage to plant), BIDPI", "setting": "rate 500", "value": 0}, {"measurement": "damage to plant (100=total damage to plant; 0=no damage to plant), BRAPL", "setting": "rate 15", "value": 30}, {"measurement": "damage to plant (100=total damage to plant; 0=no damage to plant), BRAPL", "setting": "rate 30", "value": 40}, {"measurement": "damage to plant (100=total damage to plant; 0=no damage to plant), BRAPL", "setting": "rate 60", "value": 60}, {"measurement": "damage to plant (100=total damage to plant; 0=no damage to plant), BRAPL", "setting": "rate 130", "value": 90}, {"measurement": "damage to plant (100=total damage to plant; 0=no damage to plant), BRAPL", "setting": "rate 250", "value": 90}, {"measurement": "damage to plant (100=total damage to plant; 0=no damage to plant), BRAPL", "setting": "rate 500", "value": 90}, {"measurement": "damage to plant (100=total damage to plant; 0=no damage to plant), CYPES", "setting": "rate 15", "value": 0}, {"measurement": "damage to plant (100=total damage to plant; 0=no damage to plant), CYPES", "setting": "rate 30", "value": 0}, {"measurement": "damage to plant (100=total damage to plant; 0=no damage to plant), CYPES", "setting": "rate 60", "value": 0}, {"measurement": "damage to plant (100=total damage to plant; 0=no damage to plant), CYPES", "setting": "rate 130", "value": 0}, {"measurement": "damage to plant (100=total damage to plant; 0=no damage to plant), CYPES", "setting": "rate 250", "value": 0}, {"measurement": "damage to plant (100=total damage to plant; 0=no damage to plant), CYPES", "setting": "rate 500", "value": 0}, {"measurement": "damage to plant (100=total damage to plant; 0=no damage to plant), DIGSA", "setting": "rate 15", "value": 60}, {"measurement": "damage to plant (100=total damage to plant; 0=no damage to plant), DIGSA", "setting": "rate 30", "value": 80}, {"measurement": "damage to plant (100=total damage to plant; 0=no damage to plant), DIGSA", "setting": "rate 60", "value": 90}, {"measurement": "damage to plant (100=total damage to plant; 0=no damage to plant), DIGSA", "setting": "rate 130", "value": 90}, {"measurement": "damage to plant (100=total damage to plant; 0=no damage to plant), DIGSA", "setting": "rate 250", "value": 90}, {"measurement": "damage to plant (100=total damage to plant; 0=no damage to plant), DIGSA", "setting": "rate 500", "value": 90}, {"measurement": "damage to plant (100=total damage to plant; 0=no damage to plant), ECHCG", "setting": "rate 15", "value": 30}, {"measurement": "damage to plant (100=total damage to plant; 0=no damage to plant), ECHCG", "setting": "rate 30", "value": 50}, {"measurement": "damage to plant (100=total damage to plant; 0=no damage to plant), ECHCG", "setting": "rate 60", "value": 70}, {"measurement": "damage to plant (100=total damage to plant; 0=no damage to plant), ECHCG", "setting": "rate 130", "value": 90}, {"measurement": "damage to plant (100=total damage to plant; 0=no damage to plant), ECHCG", "setting": "rate 250", "value": 90}, {"measurement": "damage to plant (100=total damage to plant; 0=no damage to plant), ECHCG", "setting": "rate 500", "value": 90}, {"measurement": "damage to plant (100=total damage to plant; 0=no damage to plant), ELEIN", "setting": "rate 15", "value": 0}, {"measurement": "damage to plant (100=total damage to plant; 0=no damage to plant), ELEIN", "setting": "rate 30", "value": 0}, {"measurement": "damage to plant (100=total damage to plant; 0=no damage to plant), ELEIN", "setting": "rate 60", "value": 0}, {"measurement": "damage to plant (100=total damage to plant; 0=no damage to plant), ELEIN", "setting": "rate 130", "value": 0}, {"measurement": "damage to plant (100=total damage to plant; 0=no damage to plant), ELEIN", "setting": "rate 250", "value": 0}, {"measurement": "damage to plant (100=total damage to plant; 0=no damage to plant), ELEIN", "setting": "rate 500", "value": 0}, {"measurement": "damage to plant (100=total damage to plant; 0=no damage to plant), EPHHL", "setting": "rate 15", "value": 0}, {"measurement": "damage to plant (100=total damage to plant; 0=no damage to plant), EPHHL", "setting": "rate 30", "value": 0}, {"measurement": "damage to plant (100=total damage to plant; 0=no damage to plant), EPHHL", "setting": "rate 60", "value": 0}, {"measurement": "damage to plant (100=total damage to plant; 0=no damage to plant), EPHHL", "setting": "rate 130", "value": 0}, {"measurement": "damage to plant (100=total damage to plant; 0=no damage to plant), EPHHL", "setting": "rate 250", "value": 10}, {"measurement": "damage to plant (100=total damage to plant; 0=no damage to plant), EPHHL", "setting": "rate 500", "value": 20}, {"measurement": "damage to plant (100=total damage to plant; 0=no damage to plant), GLXMA", "setting": "rate 15", "value": 0}, {"measurement": "damage to plant (100=total damage to plant; 0=no damage to plant), GLXMA", "setting": "rate 30", "value": 0}, {"measurement": "damage to plant (100=total damage to plant; 0=no damage to plant), GLXMA", "setting": "rate 60", "value": 0}, {"measurement": "damage to plant (100=total damage to plant; 0=no damage to plant), GLXMA", "setting": "rate 130", "value": 0}, {"measurement": "damage to plant (100=total damage to plant; 0=no damage to plant), GLXMA", "setting": "rate 250", "value": 0}, {"measurement": "damage to plant (100=total damage to plant; 0=no damage to plant), GLXMA", "setting": "rate 500", "value": 0}, {"measurement": "damage to plant (100=total damage to plant; 0=no damage to plant), IPOHE", "setting": "rate 15", "value": 0}, {"measurement": "damage to plant (100=total damage to plant; 0=no damage to plant), IPOHE", "setting": "rate 30", "value": 0}, {"measurement": "damage to plant (100=total damage to plant; 0=no damage to plant), IPOHE", "setting": "rate 60", "value": 0}, {"measurement": "damage to plant (100=total damage to plant; 0=no damage to plant), IPOHE", "setting": "rate 130", "value": 0}, {"measurement": "damage to plant (100=total damage to plant; 0=no damage to plant), IPOHE", "setting": "rate 250", "value": 0}, {"measurement": "damage to plant (100=total damage to plant; 0=no damage to plant), IPOHE", "setting": "rate 500", "value": 0}, {"measurement": "damage to plant (100=total damage to plant; 0=no damage to plant), ORYSA", "setting": "rate 15", "value": 0}, {"measurement": "damage to plant (100=total damage to plant; 0=no damage to plant), ORYSA", "setting": "rate 30", "value": 0}, {"measurement": "damage to plant (100=total damage to plant; 0=no damage to plant), ORYSA", "setting": "rate 60", "value": 0}, {"measurement": "damage to plant (100=total damage to plant; 0=no damage to plant), ORYSA", "setting": "rate 130", "value": 0}, {"measurement": "damage to plant (100=total damage to plant; 0=no damage to plant), ORYSA", "setting": "rate 250", "value": 0}, {"measurement": "damage to plant (100=total damage to plant; 0=no damage to plant), ORYSA", "setting": "rate 500", "value": 0}, {"measurement": "damage to plant (100=total damage to plant; 0=no damage to plant), PANMI", "setting": "rate 15", "value": 0}, {"measurement": "damage to plant (100=total damage to plant; 0=no damage to plant), PANMI", "setting": "rate 30", "value": 0}, {"measurement": "damage to plant (100=total damage to plant; 0=no damage to plant), PANMI", "setting": "rate 60", "value": 0}, {"measurement": "damage to plant (100=total damage to plant; 0=no damage to plant), PANMI", "setting": "rate 130", "value": 0}, {"measurement": "damage to plant (100=total damage to plant; 0=no damage to plant), PANMI", "setting": "rate 250", "value": 30}, {"measurement": "damage to plant (100=total damage to plant; 0=no damage to plant), PANMI", "setting": "rate 500", "value": 80}, {"measurement": "damage to plant (100=total damage to plant; 0=no damage to plant), SETFA", "setting": "rate 15", "value": 30}, {"measurement": "damage to plant (100=total damage to plant; 0=no damage to plant), SETFA", "setting": "rate 30", "value": 70}, {"measurement": "damage to plant (100=total damage to plant; 0=no damage to plant), SETFA", "setting": "rate 60", "value": 80}, {"measurement": "damage to plant (100=total damage to plant; 0=no damage to plant), SETFA", "setting": "rate 130", "value": 80}, {"measurement": "damage to plant (100=total damage to plant; 0=no damage to plant), SETFA", "setting": "rate 250", "value": 90}, {"measurement": "damage to plant (100=total damage to plant; 0=no damage to plant), SETFA", "setting": "rate 500", "value": 90}, {"measurement": "damage to plant (100=total damage to plant; 0=no damage to plant), SIDSP", "setting": "rate 15", "value": 10}, {"measurement": "damage to plant (100=total damage to plant; 0=no damage to plant), SIDSP", "setting": "rate 30", "value": 10}, {"measurement": "damage to plant (100=total damage to plant; 0=no damage to plant), SIDSP", "setting": "rate 60", "value": 30}, {"measurement": "damage to plant (100=total damage to plant; 0=no damage to plant), SIDSP", "setting": "rate 130", "value": 30}, {"measurement": "damage to plant (100=total damage to plant; 0=no damage to plant), SIDSP", "setting": "rate 250", "value": 80}, {"measurement": "damage to plant (100=total damage to plant; 0=no damage to plant), SIDSP", "setting": "rate 500", "value": 80}, {"measurement": "damage to plant (100=total damage to plant; 0=no damage to plant), SORVU", "setting": "rate 15", "value": 0}, {"measurement": "damage to plant (100=total damage to plant; 0=no damage to plant), SORVU", "setting": "rate 30", "value": 0}, {"measurement": "damage to plant (100=total damage to plant; 0=no damage to plant), SORVU", "setting": "rate 60", "value": 0}]}]}
